Patent US20180099961A1, “PROTEIN KINASE INHIBITORS” (Princeton Drug Discovery Inc, priority 2016, published 2018)
Read-outs that look alike come from different tables or passages of the source.

Assays:
[1] = Metabolic stability in human liver microsomes; type: in vitro ADME; settings: for metabolic stability as compared to dasatinib: human liver microsomes; for microsomal CLint at 1 μM / half-life at 1 μM: human, liver microsomes, human liver microsomes 0.5 mg/mL, NADPH and UDPGA, 37° C.; for microsomal CLint at 1 μM: read-out: CLint (intrinsic clearance); for half-life at 1 μM: read-out: In vitro t1/2
Description: FIG. 1. Metabolic stability of compounds in human liver microsomal incubations. […] Concentrations at specified times were determined by LC-MS/MS.
The incubation reactions at various time points were quenched by adding 2× volumes of acetonitrile containing 100 nM reserpine. The quenched incubation samples were centrifuged at 4000 RPM for 10 min, and the supernatants injected for LC/MS/MS analysis. LC/MS/MS analysis was carried out on a AB Sciex 4000 Q Trap LC/MS/MS system coupled with Shimadzu Prominence UFLCXR 20 series (including a CBM-20A controller, two LC-20ADXR solvent delivery units, SIL-20AC HT autosampler, CTO-20A column oven, and a SPD-20A UV detector).

BTK = molecular target: T1, BTK (Homo sapiens, UniProt Q06187); experiment: Off-chip Mobility Shift Assay; type: biochemical; settings: read-out: IC50, recombinant BTK activity
T1 construct: purchased Carna Biosciences
T1 sequence (Q06187 whole entry): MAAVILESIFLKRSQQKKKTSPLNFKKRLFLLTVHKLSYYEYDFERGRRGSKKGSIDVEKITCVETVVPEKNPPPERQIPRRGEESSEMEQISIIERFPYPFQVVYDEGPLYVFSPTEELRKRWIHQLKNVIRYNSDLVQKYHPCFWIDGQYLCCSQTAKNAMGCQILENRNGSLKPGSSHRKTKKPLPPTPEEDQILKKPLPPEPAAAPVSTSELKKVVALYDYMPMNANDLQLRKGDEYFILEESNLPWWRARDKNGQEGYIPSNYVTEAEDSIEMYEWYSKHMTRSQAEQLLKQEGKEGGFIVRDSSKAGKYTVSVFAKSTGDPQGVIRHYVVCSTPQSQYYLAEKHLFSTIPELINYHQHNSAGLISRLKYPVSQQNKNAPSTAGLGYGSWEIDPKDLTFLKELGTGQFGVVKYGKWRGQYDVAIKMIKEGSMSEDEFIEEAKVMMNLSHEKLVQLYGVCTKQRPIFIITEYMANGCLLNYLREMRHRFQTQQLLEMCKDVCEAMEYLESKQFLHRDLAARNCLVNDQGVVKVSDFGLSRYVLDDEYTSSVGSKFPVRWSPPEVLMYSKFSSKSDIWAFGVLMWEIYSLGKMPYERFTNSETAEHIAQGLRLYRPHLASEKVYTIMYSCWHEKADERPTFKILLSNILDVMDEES

RAF1 = experiment: Off-chip Mobility Shift Assay; type: biochemical
[2] = Pharmacokinetics in Sprague-Dawley rats, 2-in-1 dosing; type: in vivo; settings: for clearance / Vd / AUC(0-inf) / AUC(0-t) / half-life / bioavailability / Cmax / Tmax: Sprague-Dawley, rat; for clearance / Vd / AUC(0-inf) / AUC(0-t) / half-life / bioavailability: plasma; for clearance: read-out: CL (plasma clearance) (converted); for Vd: read-out: V (volume of distribution); for AUC(0-inf) / AUC(0-t) / half-life / Cmax / Tmax: single dose; for bioavailability: read-out: F (percent oral bioavailability); for intravenous plasma clearance compared to dasatinib and compound III / intravenous volume of distribution compared to dasatinib and compound III: Sprague-Dawley rats
Description: Sprague-Dawley rats (approximate weight 275-300 g, N=3) were dosed intravenously at 5 mL/kg and orally at 10 mL/kg with the above dosing solutions. Blood samples were collected into tubes containing EDTA as the anticoagulant at 0, 0.25 (intravenous only), 0.5, 1, 2, 4, 8, 10, and 24 h post-dosing, and plasma samples were prepared by centrifugation. The plasma samples were mixed with 3× volumes of acetonitrile containing 100 nM reserpine as the internal standard, and centrifuged at 4000 RPM for 15 min. The supernatants were injected for LC/MS analysis which were carried out on a AB Sciex 4000 Q Trap LC/MS/MS system coupled with Shimadzu Prominence UFLCXR 20 series (including a CBM-20A controller, two LC-20ADXR solvent delivery units, SIL-20AC HT autosampler, CTO-20A column oven, and a SPD-20A UV detector). The samples were separated on a Phenomenex Columbus column (C18, 4 μm, 50×2 mm) eluted with two solvent systems: 2 mM ammonium acetate in water containing 0.1% formic acid (A) and methanol (B) at a linear gradient starting with 25% B. Electrospray ionization in positive mode was used to acquire LC/MS/MS data.

[3] = iv, 1 mg/kg, intravenous 1 mg/kg, single dose (Table 2)
[4] = iv, 1 mg/kg, intravenous 1 mg/kg, single dose (Table 3)
[5] = iv, 1 mg/kg, intravenous 1 mg/kg, plasma (Table 2)
[6] = iv, 1 mg/kg, intravenous 1 mg/kg, plasma (Table 2), read-out: t1/2 (converted)
[7] = iv, 1 mg/kg, intravenous 1 mg/kg, plasma (Table 3)
[8] = iv, 1 mg/kg, intravenous 1 mg/kg, plasma (Table 3), read-out: t½ (converted)
[9] = po, 2.5 mg/kg, PO 2.5 mg/kg, plasma (Table 2)
[10] = po, 2.5 mg/kg, PO 2.5 mg/kg, plasma (Table 2), read-out: t1/2 (converted)
[11] = po, 5 mg/kg, PO 5 mg/kg, plasma (Table 3)
[12] = po, 5 mg/kg, PO 5 mg/kg, plasma (Table 3), read-out: t½ (converted)
[13] = PO 2.5 mg/kg versus intravenous 1 mg/kg, AUCinf dose normalized (Table 2)

metabolic stability as compared to dasatinib [1] | microsomal CLint at 1 μM [1] | half-life at 1 μM [1] | clearance [2, 3] | Vd [2, 3] | AUC(0-inf) [2, 5] | AUC(0-t) [2, 5] | half-life [2, 6] | AUC(0-inf) [2, 9] | AUC(0-t) [2, 9] | half-life [2, 10] | bioavailability [2, 13] | Cmax ([2]; PO 2.5 mg/kg, plasma (Table 2)) | Tmax ([2]; PO 2.5 mg/kg, plasma (Table 2)) | Compound | other results
significantly greater stability |  |  |  |  |  |  |  |  |  |  |  |  |  | Cc1nc(Nc2ncc(C(=O)Nc3c(C)cccc3Cl)s2)cc(N2CC[C@H](N)C2)n1 [Compound XII, N-(2-chloro-6-methylphenyl)-2-[[2-methyl-6-((S)-3-aminopyrrolidin-1-yl)pyrimidin-4-yl]amino]thiazole-5-carboxamide] | 
significantly greater stability |  |  |  |  |  |  |  |  |  |  |  |  |  | Cc1nc(Nc2ncc(C(=O)Nc3c(C)cccc3Cl)s2)cc(N2CC[C@@H](N)C2)n1 [Compound XIII, N-(2-chloro-6-methylphenyl)-2-[[2-methyl-6-((R)-3-aminopyrrolidin-1-yl)pyrimidin-4-yl]amino]thiazole-5-carboxamide] | 
 | 44 µL/min/mg | 0.533 h |  |  |  |  |  |  |  |  |  |  |  | [2H]c1cc(C)c(NC(=O)c2cnc(Nc3cc(N4CCC(O)CC4)nc(C)n3)s2)c(Cl)c1 [Compound II, N-(2-chloro-4-deuterio-6-methyl-phenyl)-2-[[6-(4-hydroxy-1-piperidyl)-2-methyl-pyrimidin-4-yl]amino]thiazole-5-carboxamide] | IC50 (BTK): < 1 nM; inhibition of RAF1 (RAF1; 1 nM): < 50%; inhibition of RAF1 (RAF1; 10 nM): < 50%; inhibition of RAF1 (RAF1; 100 nM): < 50%
 |  | 0.4 h | 20.2 mL/min/kg | 3 L/kg | 835 ± 114 ng·h/mL | 835 ± 114 ng·h/mL | 1.6 ± 0.1 h | 144 ± 68 ng·h/mL | 139 ± 69 ng·h/mL | 4.7 ± 2.2 h | 7.2 ± 4.2% | 9 ± 6 ng/mL | 5.5 ± 4.3 h | [2H]c1cc(C)c(NC(=O)c2cnc(Nc3cc(N4CCN(CCO)CC4)nc(C)n3)s2)c(Cl)c1 [Compound III] | clearance [2, 4]: 18.6 mL/min/kg; Vd [2, 4]: 3 L/kg; AUC(0-inf) [2, 7]: 917 ± 161 ng·h/mL; AUC(0-t) [2, 7]: 916 ± 161 ng·h/mL; half-life [2, 8]: 1.7 ± 0.2 h; AUC(0-inf) [2, 11]: 137 ± 20 ng·h/mL; AUC(0-t) [2, 11]: 124 ± 26 ng·h/mL; half-life [2, 12]: 8.2 ± 4.1 h; bioavailability ([2]; PO 5 mg/kg versus intravenous 1 mg/kg, AUCinf dose normalized (Table 3)): 6 ± 0.9%; Cmax ([2]; PO 5 mg/kg, plasma (Table 3)): 11 ± 11 ng/mL; Tmax ([2]; PO 5 mg/kg, plasma (Table 3)): 0.5 h
significantly greater stability |  |  |  |  |  |  |  |  |  |  |  |  |  | [2H]c1cc(C)c(NC(=O)c2cnc(Nc3cc(N4CC[C@@H](N)C4)nc(C)n3)s2)c(Cl)c1 [Compound VII, N-(2-chloro-4-deutero-6-methylphenyl)-2-[[2-methyl-6-((R)-3-aminopyrrolidin-1-yl)pyrimidin-4-yl]amino]thiazole-5-carboxamide] | 
significantly greater stability |  |  |  |  |  |  |  |  |  |  |  |  |  | Cc1nc(Nc2ncc(C(=O)Nc3c(C)cccc3Cl)s2)cc(N2CCCCC2)n1 [Compound VIII, N-(2-chloro-6-methylphenyl)-2-[[2-methyl-6-(piperidin-1-yl)pyrimidin-4-yl]amino]thiazole-5-carboxamide] | 
 | 56 µL/min/mg | 0.417 h |  |  |  |  |  |  |  |  |  |  |  | Cc1nc(Nc2ncc(C(=O)Nc3c(C)cccc3Cl)s2)cc(N2CCC(O)CC2)n1 [Compound IX, N-(2-chloro-6-methylphenyl)-2-[[2-methyl-6-(4-hydroxypiperidin-1-yl)pyrimidin-4-yl]amino]thiazole-5-carboxamide] | 
significantly greater stability | < 24 µL/min/mg | > 0.983 h | 8.57 mL/min/kg | 1 L/kg | 1960 ± 214 ng·h/mL | 1960 ± 214 ng·h/mL | 1.4 ± 0.1 h | 539 ± 188 ng·h/mL | 524 ± 191 ng·h/mL | 4.4 ± 2.8 h | 11.1 ± 4.3% | 35 ± 19 ng/mL | 5.5 ± 4.3 h | [2H]c1cc(C)c(NC(=O)c2cnc(Nc3cc(N4CC[C@@H](O)C4)nc(C)n3)s2)c(Cl)c1 [Compound V, N-(2-chloro-4-deutero-6-methylphenyl)-2-[[2-methyl-6-((R)-3-hydroxypyrrolidin-1-yl)pyrimidin-4-yl]amino]thiazole-5-carboxamide] | intravenous plasma clearance compared to dasatinib and compound III [2]: much lower; intravenous volume of distribution compared to dasatinib and compound III [2]: significantly lower
 |  |  | 21.3 mL/min/kg | 3 L/kg | 784 ± 54 ng·h/mL | 783 ± 54 ng·h/mL | 1.5 h | 196 ± 85 ng·h/mL | 193 ± 86 ng·h/mL | 3.5 ± 0.5 h | 9.8 ± 3.6% | 15 ± 5 ng/mL | 5.5 ± 4.3 h | Cc1nc(Nc2ncc(C(=O)Nc3c(C)cccc3Cl)s2)cc(N2CCN(CCO)CC2)n1 [Dasatinib, reference compound] | clearance [2, 4]: 16.5 mL/min/kg; Vd [2, 4]: 2 L/kg; AUC(0-inf) [2, 7]: 1010 ± 68 ng·h/mL; AUC(0-t) [2, 7]: 1010 ± 68 ng·h/mL; half-life [2, 8]: 1.7 ± 0.3 h; AUC(0-inf) [2, 11]: 97 ± 22 ng·h/mL; AUC(0-t) [2, 11]: 93 ± 23 ng·h/mL; half-life [2, 12]: 5.9 ± 1.5 h; Cmax ([2]; PO 5 mg/kg, plasma (Table 3)): 7 ± 7 ng/mL; Tmax ([2]; PO 5 mg/kg, plasma (Table 3)): 0.5 h
significantly greater stability | < 24 µL/min/mg | > 0.983 h | 8.92 mL/min/kg | 1 L/kg | 1880 ± 153 ng·h/mL | 1880 ± 152 ng·h/mL | 1.4 ± 0.1 h | 892 ± 341 ng·h/mL | 891 ± 341 ng·h/mL | 2.3 ± 0.2 h | 18.9 ± 6.7% | 82 ± 13 ng/mL | 5.5 ± 4.3 h | [2H]c1cc(C)c(NC(=O)c2cnc(Nc3cc(N4CC[C@H](O)C4)nc(C)n3)s2)c(Cl)c1 [Compound IV, N-(2-chloro-4-deutero-6-methylphenyl)-2-[[2-methyl-6-((S)-3-hydroxypyrrolidin-1-yl)pyrimidin-4-yl]amino]thiazole-5-carboxamide] | intravenous plasma clearance compared to dasatinib and compound III [2]: much lower; intravenous volume of distribution compared to dasatinib and compound III [2]: significantly lower
significantly greater stability |  |  |  |  |  |  |  |  |  |  |  |  |  | [2H]c1cc(C)c(NC(=O)c2cnc(Nc3cc(N4CC[C@H](N)C4)nc(C)n3)s2)c(Cl)c1 [Compound VI, N-(2-chloro-4-dutero-6-methylphenyl)-2-[[2-methyl-6-((S)-3-aminopyrrolidin-1-yl)pyrimidin-4-yl]amino]thiazole-5-carboxamide] | 
